From patent publication US6949250B2, “Selective algaecides for control of cyanochloronta” (The United States of America as represented by the …, priority 2002, dated 2005)

What was measured:
[1] = system: green algae; experiment: DNA1-19-1 first pond efficacy study (limnocorrals): green algae abundance; type: in vivo, green algae (Division Chlorophyta); conditions: 2 μM, until 10 days after application, LSD
Procedure: (§1) The method described by Schrader et al. (2000) was used to determine the potential for using the anthraquinone derivatives as selective algicides in catfish aquaculture ponds. All catfish ponds used in efficacy tests were maintained using commercial pond management practices and were located at the Thad Cochran Pond Facility, Mississippi State University, Stoneville, Miss. Anthraquinone analogs were dissolved in deionized water before application to water within the limnocorrals.
(§2) Limnocorrals in which test compound was applied to the enclosed water were randomly selected, and control (no test compound applied) limnocorrals were included in each efficacy study. For each sampling, two water samples (250 mL) were obtained from within each limnocorral (approximately 6-8 cm below the water surface and from opposite sides of each limnocorral) and mixed together in a 500 mL sample bottle to provide a representative sample of the water contained within the limnocorral.
Three pond efficacy studies were conducted with DNA1-19-1. […] To perform phytoplankton identification and enumeration, water samples were processed by preserving 50-mL subsamples with Lugol's solution and storing them at 4° C. until they could be identified and counted as “natural units” (i.e., colonies, filaments, or unialgal cells) using a Sedgewick-Rafter counting chamber at 300× magnification. […]

[2] = DNA2-59-1 third efficacy study: dissipation rate and half-life in pond water (HPLC); type: physicochemical; conditions: for DNA2-59-1 Levels in Pond Water: third study, 0.3 μM applied
Procedure: For the third efficacy test with DNA2-59-1, twelve limnocorrals (2.44 m in diameter and 1.53 m high) were placed in a 4-ha earthen pond containing a bloom of O. perornata. The same procedures, application rate (0.3 μM), and methods used in the second efficacy test of DNA2-59-1 were used except six limnocorrals were randomly selected to receive an application rate of 0.3 μM DNA2-59-1 while the other six limnocorrals were controls. Water samples were collected before application of DNA2-59-1, 20 minutes after application, and at days 1, 2, 3, 4, and 7. The same tests and methods used in the first efficacy testing of DNA2-59-1 were used.
Approximately 15 mL each of water samples from DNA2-59-1 efficacy testing that were designated for HPLC analysis were placed in scintillation vials and held in a freezer. Water samples were later melted at room temperature, and 5 mL of each sample was then filtered through a nylon membrane filter (13 mm diameter and 0.45 μm; Whatman International, Maidstone, England) using a 5 mL syringe (Hamilton Company, Reno, Nev.) and a 13 mm syringe filter holder (Fisher Scientific Company, Pittsburgh, Pa.). Filtrate (1 mL) was placed in 2 mL vials and capped using teflon/rubber septum caps (National Scientific Company, Jeddah, Saudia Arabia). The filter paper was removed and placed in a scintillation vial to which 2 mL of HPLC grade methanol (Fisher Scientific, Fair Lawn, N.J.) was added and then sonicated for 5 minutes. The methanol solution was then filtered using a nylon membrane acrodisc (25 mm and 0.45 μm; Pall Life Sciences, Ann Arbor, Mich.), and the methanol filtrate was placed in separate 2 mL vials.
Filtrate samples were analyzed using a Waters 2690 Alliance HPLC containing a 996 PDA detector and a XTerra RP 18 column (150 mm×4.6 mm, 5 μm particle size; Waters Corporation, Milford, Mass.). The mobile phase consisted of 25 mM sodium dihydrogenphosphate in 0.1% phosphoric acid (A) and acetonitrile (B). The gradient was from 80A/20B in 15 minutes to 40A/60B. After each run, a 5 minute wash with methanol was performed, followed by equilibrating the column for 10 minutes with 80A/20B. The temperature was set at 40° C., the flow rate was 1 mL/minute, the detection wavelength 256 nm, and the sample injection volume was 10 μL. All solvents used were HPLC grade (Fisher Scientific, Fair Lawn, N.J.).
Means and standard deviations of data were determined and graphed. The graphs were used to help determine the half-life of DNA2-59-1 in the pond water. Because of the short duration of the first efficacy study, the half-life of DNA2-59-1 in the pond water could not be determined.

[3] = system: Oscillatoria perornata; experiment: DNA2-59-1 third pond efficacy study: O. perornata abundance; type: in vivo; conditions: 0.3 μM, within 24 hours after application
Procedure: as §1, §2
For the third efficacy test with DNA2-59-1, twelve limnocorrals (2.44 m in diameter and 1.53 m high) were placed in a 4-ha earthen pond containing a bloom of O. perornata. […]

[4] = system: Oscillatoria perornata; experiment: DNA2-59-1 second pond efficacy study: O. perornata abundance; type: in vivo; conditions: 0.3 μM, within three days of application
Procedure: as §1, §2
In the second efficacy test with DNA2-59-1, six limnocorrals (1.53 m in diameter and 1.53 m high) were placed in a 0.1-ha earthen pond containing a heavy bloom of O. perornata. The same delay in mixing the water within the limnocorrals used in the first efficacy study was utilized. Water within three randomly selected limnocorrals received an application rate of 0.3 μM DNA2-59-1, and the other three limnocorrals were controls. […]

Row | SMILES | Numbers of green algae, treated vs controls (result in words) [1] | half-life at 0.3 μM ([2]; pond water in limnocorrals (earthen catfish pond), third efficacy study) | DNA2-59-1 Levels in Pond Water ([2]; 0 hours) | DNA2-59-1 Levels in Pond Water ([2]; 24 hours) | DNA2-59-1 Levels in Pond Water ([2]; 48 hours) | DNA2-59-1 Levels in Pond Water ([2]; 72 hours) | DNA2-59-1 Levels in Pond Water ([2]; 96 hours) | Numbers of O. perornata (result in words) [3] | Numbers of O. perornata (result in words) [4]
1 | CCN(CC)CCCC(C)NCc1ccc2c(c1)C(=O)c1ccccc1C2=O.O=P(O)(O)O.O=P(O)(O)O (stereo not drawn) [DNA1-19-1, 2-[methylamino-N-(1′-methyl-4′-N,N-diethylaminobutyl)]-9,10-anthraquinone diphosphate] | not significantly different | – | – | – | – | – | – | – | –
2 | CC(C)NCc1ccc2c(c1)C(=O)c1ccccc1C2=O [DNA2-59-1, 2-[methylamino-N-(1′-methylethyl)]-9,10-anthraquinone monophosphate] | – | 19 h | 90.6 ± 7.9 µg/L | 31.5 ± 4.4 µg/L | 9.2 ± 3.2 µg/L | 2.2 ± 0.5 µg/L | 0 µg/L | significantly reduced | significantly and dramatically reduced
